Reference: ChEMBL document CHEMBL5260848, “Recent advancements in the development of bioactive pyrazoline derivatives” (Eur J Med Chem, 2020)
In brackets after ≈: the same amount, converted by molar mass.

Key:
Escherichia coli [1] = test: Antibacterial activity against Escherichia coli by agar dilution method; assay type: functional
Pseudomonas aeruginosa [2] = test: Antibacterial activity against Pseudomonas aeruginosa by agar dilution method; assay type: functional
Staphylococcus aureus [3] = test: Antibacterial activity against Staphylococcus aureus by agar dilution method; assay type: functional
Bacillus subtilis [4] = test: Antibacterial activity against Bacillus subtilis by agar dilution method; assay type: functional
Escherichia coli [5] = test: Potency index, ratio of ampicillin MIC to compound MIC for Escherichia coli by agar dilution method; assay type: functional
Pseudomonas aeruginosa [6] = test: Potency index, ratio of ampicillin MIC to compound MIC for Pseudomonas aeruginosa by agar dilution method; assay type: functional
Candida albicans [7] = test: Antifungal activity against Candida albicans by agar dilution method; assay type: functional
Mus musculus [8] = species: Mus musculus; test: Antidepressant activity in Swiss albino mouse assessed as decrease in immobility time by forced swimming test; assay type: functional
Mus musculus [9] = species: Mus musculus; test: Antidepressant activity in Swiss albino mouse assessed as decrease in immobility time by tail suspension test; assay type: functional
[10] = tested on: Mycobacterium tuberculosis; test: microbe, parasite or virus in culture; details: H37Rv
Plasmodium falciparum = test: Antimalarial activity against chloroquine-sensitive Plasmodium falciparum NF54 measured after 72 hrs by giemsa staining based analysis; assay type: functional, organism-based; details: NF54, 72 h
[11] = tested on: Bordetella bronchiseptica; test: Antibacterial activity against Bordetella bronchiseptica ATCC 4617 by plate dilution method; assay type: functional
Candida albicans [12] = test: Antifungal activity against Candida albicans assessed as reduction in microbial growth; assay type: functional
Cryptococcus neoformans = test: Antifungal activity against Cryptococcus neoformans assessed as reduction in microbial growth; assay type: functional
[13] = Cytotoxicity against human Panel NCI-58 (58 carcinoma cell lines) cells; assay type: functional
Carbonic anhydrase 1 = Carbonic anhydrase 1 (Homo sapiens, UniProt P00915)
Carbonic anhydrase 1, sequence (P00915 whole entry): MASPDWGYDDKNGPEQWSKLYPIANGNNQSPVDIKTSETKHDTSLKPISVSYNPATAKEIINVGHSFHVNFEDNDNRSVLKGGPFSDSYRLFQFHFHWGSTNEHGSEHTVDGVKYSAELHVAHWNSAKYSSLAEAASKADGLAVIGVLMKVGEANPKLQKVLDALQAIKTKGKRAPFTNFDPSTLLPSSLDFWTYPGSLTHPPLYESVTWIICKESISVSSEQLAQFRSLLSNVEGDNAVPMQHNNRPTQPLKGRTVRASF

Carbonic anhydrase 9 = Carbonic anhydrase 9 (Homo sapiens, UniProt Q16790); test: Inhibition of human CA9
Carbonic anhydrase 12 = Carbonic anhydrase 12 (Homo sapiens, UniProt O43570); test: Inhibition of human CA12
Carbonic anhydrase 12, sequence (O43570 whole entry): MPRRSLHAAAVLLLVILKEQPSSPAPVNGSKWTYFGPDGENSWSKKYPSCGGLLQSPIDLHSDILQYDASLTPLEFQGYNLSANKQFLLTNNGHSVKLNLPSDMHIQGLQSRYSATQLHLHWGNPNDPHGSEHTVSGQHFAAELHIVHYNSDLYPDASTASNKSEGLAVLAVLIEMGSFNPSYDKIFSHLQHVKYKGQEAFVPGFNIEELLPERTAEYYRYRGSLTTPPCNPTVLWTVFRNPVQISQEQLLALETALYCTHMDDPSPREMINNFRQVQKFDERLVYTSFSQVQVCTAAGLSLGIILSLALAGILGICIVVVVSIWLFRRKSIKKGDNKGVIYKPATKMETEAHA

Carbonic anhydrase 2 = Carbonic anhydrase 2 (Homo sapiens, UniProt P00918)
[14] = tested on: Mycobacterium tuberculosis; test: Antimycobacterial activity against Mycobacterium tuberculosis; assay type: functional
[15] = tested on: Mycobacterium tuberculosis; test: microbe, parasite or virus in culture; details: 120 h
Acetylcholinesterase = Acetylcholinesterase (Homo sapiens, UniProt P22303)
Acetylcholinesterase, sequence (P22303 whole entry): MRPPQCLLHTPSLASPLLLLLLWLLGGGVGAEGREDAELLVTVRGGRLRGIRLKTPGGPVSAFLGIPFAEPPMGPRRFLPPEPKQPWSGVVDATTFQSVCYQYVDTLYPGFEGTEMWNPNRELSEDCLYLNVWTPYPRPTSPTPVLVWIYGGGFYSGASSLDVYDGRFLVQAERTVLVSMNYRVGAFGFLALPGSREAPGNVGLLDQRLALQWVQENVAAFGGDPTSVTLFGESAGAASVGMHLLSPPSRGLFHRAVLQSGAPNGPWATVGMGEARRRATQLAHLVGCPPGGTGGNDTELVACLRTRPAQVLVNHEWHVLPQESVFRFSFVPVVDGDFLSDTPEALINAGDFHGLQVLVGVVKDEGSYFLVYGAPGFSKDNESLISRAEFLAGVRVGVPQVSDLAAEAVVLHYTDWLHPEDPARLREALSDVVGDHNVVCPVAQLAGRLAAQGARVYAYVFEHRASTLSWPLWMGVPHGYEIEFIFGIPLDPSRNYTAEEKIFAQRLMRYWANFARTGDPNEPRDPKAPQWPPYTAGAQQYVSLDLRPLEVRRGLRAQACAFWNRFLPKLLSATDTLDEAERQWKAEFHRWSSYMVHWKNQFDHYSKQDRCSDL

HepG2 [16] = test: cells; details: Homo sapiens
Staphylococcus aureus [17] = test: Antibacterial activity against Staphylococcus aureus ATCC 25923 by plate dilution method; assay type: functional
Enterococcus faecalis = test: Antibacterial activity against Enterococcus faecalis ATCC 29212 by plate dilution method; assay type: functional
[18] = tested on: Staphylococcus epidermidis; test: Antibacterial activity against Staphylococcus epidermidis ATCC 12228 by plate dilution method; assay type: functional
Bacillus subtilis [19] = test: Antibacterial activity against Bacillus subtilis ATCC 6633 by plate dilution method; assay type: functional
Bacillus cereus = test: Antibacterial activity against Bacillus cereus ATCC 9946 by plate dilution method; assay type: functional
Escherichia coli [20] = test: Antibacterial activity against Escherichia coli ATCC 25922 by plate dilution method; assay type: functional
Pseudomonas aeruginosa [21] = test: Antibacterial activity against Pseudomonas aeruginosa ATCC 27853 by plate dilution method; assay type: functional
Klebsiella pneumoniae = test: Antibacterial activity against Klebsiella pneumoniae ATCC 700603 by plate dilution method; assay type: functional
Proteus vulgaris = test: Antibacterial activity against Proteus vulgaris ATCC 9920 by plate dilution method; assay type: functional
Mus musculus [22] = species: Mus musculus; test: Antidepressant activity in mouse assessed as […] by tail suspension test; assay type: functional
Mus musculus [23] = species: Mus musculus; test: Antidepressant activity in mouse assessed as […] by forced swimming test; assay type: functional
Mus musculus [24] = species: Mus musculus; test: Antianxiety activity in mouse assessed as increase in number of entries in different arms; assay type: functional
HepG2 [25] = test: Cytotoxicity against human HepG2 cells assessed as growth inhibition; assay type: functional, cell-based
[26] = Growth inhibition of human Panel NCI-58 (58 carcinoma cell lines) cells by SRB method; assay type: functional
[27] = Cytotoxicity against human Panel NCI-58 (58 carcinoma cell lines) cells by SRB method; assay type: functional; details: read-out: LC50 (the source's name)
DU-145 = test: Cytotoxicity against human DU-145 cells by SRB assay; assay type: functional
Tubulin (Homo sapiens) = Tubulin (Homo sapiens) (UniProt P68371+Q9H4B7+P0DPH7+P68366+Q13509+Q71U36+P04350+Q3ZCM7+P07437+P68363+Q9BQE3+Q6PEY2+Q13885+Q9BVA1+Q9BUF5); test: Inhibition of tubulin polymerization (unknown origin) by fluorescence assay relative to control; assay type: protein-complex assay; details: concentration not given here

For Oc1ccc(Br)cc1C1=NNC(c2cc3ccccc3n3nnnc23)C1 (stereo not drawn), the MIC (Escherichia coli [1]) was 50 µg/mL (≈ 122 µM), the MIC (Pseudomonas aeruginosa [2]) was 50 µg/mL (≈ 122 µM) and the MIC (Staphylococcus aureus [3]) was 25 µg/mL (≈ 61.1 µM). For the same compound, the MIC (Bacillus subtilis [4]) was 25 µg/mL (≈ 61.1 µM), the Ratio (Escherichia coli [5]) was 2 and the Ratio (Pseudomonas aeruginosa [6]) was 2.
Cc1cccc2cc(C3CC(c4cc(Br)ccc4O)=NN3)c3nnnn3c12 (stereo not drawn) gave a Ratio (Pseudomonas aeruginosa [6]) of 2 and an MIC (Candida albicans [7]) of 25 µg/mL (≈ 59.1 µM).
With Cc1nc(-c2cc(F)cc(F)c2)ccc1C1=NNC(c2c(F)cccc2Cl)C1 (stereo not drawn) the Time (Mus musculus [8]) was 66.67 s, the Time (Mus musculus [9]) was 70.33 s and the MIC [10] was 12.5 µg/mL (≈ 31.1 µM).
In the case of COc1cc(C)c(/C=C/C(=O)c2cc(OC)c(OC)c(OC)c2)cc1C(C)C, the IC50 (Plasmodium falciparum) is reported as under 2000 nM.
O=c1oc2ccc(I)cc2cc1-c1csc(N2N=C(c3ccccc3F)CC2c2cc3ccccc3nc2Cl)n1 (stereo not drawn) gave an MIC [11] of 50 µg/mL (≈ 73.6 µM).
COc1ccc(C2CC(c3cccc(Nc4ccnc5cc(Cl)ccc45)c3)=NN2c2ccc(Cl)cc2)cc1 (stereo not drawn) gave an MIC50 (Candida albicans [12]) of 3.9 µg/mL, an MIC50 (Cryptococcus neoformans) of under 3.9 µg/mL and an MIC (Cryptococcus neoformans; read-out: MIC100) of under 3.9 µg/mL. The GI50 [13] was under 1000 nM.
With COc1ccc(C2=NN(C(=O)c3ccc(S(N)(=O)=O)cc3)C(c3ccccc3)C2)c(OC)c1 (stereo not drawn) the Ki (Carbonic anhydrase 1) was 87.8 nM, the Ki (Carbonic anhydrase 9) was 5.5 nM and the Ki (Carbonic anhydrase 12) was 7.1 nM. It also gave a Ki (Carbonic anhydrase 2) of 31.7 nM.
With COc1cc(C2CC(c3ccc(Nc4ccnc5cc(Cl)ccc45)cc3)=NN2c2ccc(Cl)cc2)cc(OC)c1OC (stereo not drawn) the MIC50 (Candida albicans [12]) was 3.9 µg/mL, the MIC50 (Cryptococcus neoformans) was 3.9 µg/mL and the GI50 [13] was under 1000 nM.
For COc1ccc2c(c1)C1=NN(CCCN(C)C)C3=CC=C([N+](=O)[O-])C(N2)C31 (stereo not drawn), the MIC [14] was 3.12 µg/mL (≈ 8.45 µM) and the MIC [15] was 3.12 µg/mL (≈ 8.46 µM).
Cc1ccc2cc(C3CC(c4cc(Cl)sc4Cl)=NN3)c(Cl)nc2c1 (stereo not drawn) showed an IC50 (Acetylcholinesterase) of 150 nM.
With CC(=O)N1N=C(c2nnn(-c3ccc(-n4nnc(C5=NN(C(C)=O)C(c6ccccc6)C5)c4C)cc3)c2C)CC1c1ccccc1 (stereo not drawn) the IC50 (HepG2 [16]) was 57.1 µg/mL (≈ 93.1 µM).
Compound O=c1oc2ccc(F)cc2cc1-c1csc(N2N=C(c3ccccc3F)CC2c2cc3ccccc3nc2Cl)n1 (stereo not drawn) has an MIC [11] of 50 µg/mL (≈ 87.6 µM), an MIC (Staphylococcus aureus [17]) of 50 µg/mL (≈ 87.6 µM) and an MIC (Enterococcus faecalis) of 50 µg/mL (≈ 87.6 µM). For the same compound, the MIC [18] was 50 µg/mL (≈ 87.6 µM), the MIC (Bacillus subtilis [19]) was 50 µg/mL (≈ 87.6 µM) and the MIC (Bacillus cereus) was 50 µg/mL (≈ 87.6 µM). The MIC (Escherichia coli [20]) was 50 µg/mL (≈ 87.6 µM), the MIC (Pseudomonas aeruginosa [21]) was 50 µg/mL (≈ 87.6 µM) and the MIC (Klebsiella pneumoniae) was 50 µg/mL (≈ 87.6 µM). It also gave an MIC (Proteus vulgaris) of 50 µg/mL (≈ 87.6 µM).
In the case of COc1ccc(C2CC(c3ccc(O)cc3)=NN2)cc1OC (stereo not drawn), the Time (Mus musculus [22]) is reported as 21.17 s, the Time (Mus musculus [23]) is reported as 21.17 s and the Activity (Mus musculus [24]) is reported as 15.5.
O=C(/C=C/c1ccc(N2CCCCC2)cc1)c1sccc1Cl showed an IC50 (Acetylcholinesterase) of 160 nM.
With NS(=O)(=O)c1ccc(C(=O)N2N=C(c3ccccc3)CC2c2ccc(F)cc2)cc1 (stereo not drawn) the Ki (Carbonic anhydrase 1) was 87.8 nM, the Ki (Carbonic anhydrase 12) was 7.1 nM and the Ki (Carbonic anhydrase 2) was 31.7 nM.
For Cc1ccc2cc(C3CC(c4sccc4Cl)=NN3)c(Cl)nc2c1 (stereo not drawn), the IC50 (Acetylcholinesterase) was 200 nM.
With Clc1ccc(-c2csc(N3N=C(c4cccs4)CC3c3ccc(Cl)cc3Cl)n2)cc1 (stereo not drawn) the IC50 (HepG2 [25]) was 2980 nM.
With OCCNc1nc(NCCO)nc(Nc2ccc(C3=NN(c4cc(Cl)cc(Cl)c4)C(c4ccc(C(F)(F)F)cc4)C3)cc2)n1 (stereo not drawn) the GI50 [26] was 569 nM and the CC50 [27] was 5.15 µM.
Work on COc1ccc(C2=CC(c3cc(C(C)C)c(OC)cc3C)N(C(=O)OC(C)C)N2C(=O)OC(C)C)cc1OC (stereo not drawn) yielded an IC50 (Plasmodium falciparum) of under 2000 nM.
Work on COc1ccc(/C=C/C(=O)c2cc(OC)c(OC)c(OC)c2)cc1OCc1cn(Cc2ccc(F)cc2)nn1 yielded a GI50 (DU-145) of 1300 nM and an inhibition (Tubulin (Homo sapiens)) of 51%.
CN[C@@H]1[C@H](O[C@H]2[C@H](O[C@H]3[C@H](O)[C@@H](O)[C@H](N=C(N)N)[C@@H](O)[C@@H]3N=C(N)N)O[C@@H](C)[C@]2(O)C=O)O[C@@H](CO)[C@H](O)[C@H]1O [STREPTOMYCIN] gave an MIC [14] of 6.25 µg/mL (≈ 10.7 µM) and an MIC [15] of 6.25 µg/mL (≈ 10.7 µM).
COc1ccc(C2CC(c3ccc(-c4cc(F)cc(F)c4)nc3C)=NN2)cc1OC (stereo not drawn) showed a Time (Mus musculus [8]) of 66.67 s, a Time (Mus musculus [9]) of 70.33 s and an MIC [10] of 12.5 µg/mL (≈ 30.5 µM).
Work on COc1cc(C)c(/C=C/C(=O)c2ccc(Br)cc2)cc1C(C)C yielded an IC50 (Plasmodium falciparum) of under 2000 nM.
